# Residue numbers refer to the chain shown, from its start. “Also recorded” adds a separate entry of the source.
# What was measured:
# [1] = tested on: ldlA[mSR-BI] cells; experiment: Cell cytotoxicity assay (CellTiter-Glo); settings: ldlA[mSR-BI] cells
# Protocol: It is possible that a compound will cause cells to decrease HDL-mediated DiI uptake due to nonspecific consequences of cellular toxicity, representing a second class of false positive hits. The cells were treated with compounds for 3 hours or 24 hours, and then cell viability was measured using the CellTiter-Glo Assay (Promega), a luciferase-based reagent that measures cellular ATP levels. The compounds were tested at different concentrations to determine IC50 values. […] Data were normalized against DMSO and the positive control (1 μM BLT-1) in Genedata Assay Analyzer.
# All available dry powder samples of the remaining, non-quenching compounds were procured from commercial sources and purities were determined. The compounds obtained were then retested in the primary assay and in cytotoxicity assays. We wanted to rule out any compounds that were cytotoxic, especially in the 3-hour time span of the primary DiI-HDL uptake assay. Therefore, compounds were tested in ldl[mSR-BI] cells for cytotoxicity at 3 hours and 24 hours using the CellTiter-Glo assay (Promega) that measures cellular ATP as a marker of cell viability. […] Compounds were screened for inhibition of endocytosis using labeled transferrin, which is known to bind the transferrin receptor, enter cells by clathrin-mediated endocytosis, and move to endosomes before being recycled to the cell surface.
# [2] = target: T1, SR-BI (Mus musculus, UniProt Q61009); experiment: DiI-HDL uptake assay with extended washout; type: cell-based, murine; set-up: expressed in transfected cells; host or cells: ldlA[mSR-BI], Chinese hamster ovary (CHO) cells lacking LDL receptor (Krieger Laboratory); settings: 4-hour washout period
# T1 sequence (Q61009 1-509): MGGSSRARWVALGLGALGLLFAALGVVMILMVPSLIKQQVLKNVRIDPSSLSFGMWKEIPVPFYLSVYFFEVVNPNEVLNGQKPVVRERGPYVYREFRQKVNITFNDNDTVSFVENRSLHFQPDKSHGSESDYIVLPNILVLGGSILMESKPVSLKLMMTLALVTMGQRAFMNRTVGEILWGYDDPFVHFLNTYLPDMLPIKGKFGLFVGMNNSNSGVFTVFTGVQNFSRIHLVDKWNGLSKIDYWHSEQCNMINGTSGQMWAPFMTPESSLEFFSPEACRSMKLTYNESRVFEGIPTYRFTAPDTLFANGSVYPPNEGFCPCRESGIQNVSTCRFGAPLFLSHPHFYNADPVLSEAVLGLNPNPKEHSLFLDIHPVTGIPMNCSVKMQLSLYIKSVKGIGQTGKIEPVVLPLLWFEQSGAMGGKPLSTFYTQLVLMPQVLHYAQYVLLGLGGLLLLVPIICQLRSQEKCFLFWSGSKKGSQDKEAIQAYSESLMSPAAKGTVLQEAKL
# Protocol: DiI-HDL Uptake Assay with Extended Washout (SA 5: AID No. 588831)
# This is another modification of the primary assay where cells are pretreated with compound but no compound is present during a 4-hour washout period or the subsequent 3-hour DiI-HDL treatment period. […] Cells were treated with compound for 3 hours, then were washed four times with PBS, once with lipoprotein-free media (Ham's F12/0.5% fatty acid-free Bovine Serum Albumin [BSA]/25 mM HEPES pH 7.4), and then returned to the incubator with lipoprotein-free media for 4 hours. Media were then removed and cells were washed with PBS before fresh lipoprotein-free media (Ham's F12/0.5% fatty acid-free Bovine Serum Albumin [BSA]/25 mM HEPES pH 7.4) was added with 10 μg protein/ml DiI-HDL. Cells took up the DiI via SR-BI over 3 hours in the absence of compound. After significant uptake of the DiI, the cells became fluorescent. The level of fluorescence correlates with the amount of DiI uptake and can be measured with a standard plate reader. The uptake of lipid (represented by DiI) was inhibited by the compound BLT-1 or with an excess of HDL untreated with DiI.
# [3] = target: T2, C384S SR-BI (Mus musculus, UniProt Q61009, C384S); experiment: Radioactive HDL uptake assay (mutant SR-BI); type: cell-based, murine; settings: Cys384 converted to serine
# T2 construct: expressed in transfected cells; host or cells: CHO cell line lacking LDL receptors, overexpressing C384S SR-BI
# T2 sequence (Q61009 1-509 C384S): T1 sequence (Q61009 1-509) with C384S
# Excerpt: Radioactive HDL Uptake Assay (mutant SR-BI) (SA 9: AID No. 588837)
# BLT-1 is known to interact at cysteine 384 of SR-BI (16). […] This assay is used to determine if the compounds work in a similar fashion to BLT-1 and require Cys384 to alter the binding of HDL particles and uptake of the lipid to the mutant SR-BI scavenger receptor, using an alternative means of labeling HDL particles and avoiding any type of fluorescence measurement. To measure this lipid uptake event, HDL particles are labeled with [^3H]cholesteryl ester and added to C384S SR-BI cells. Cells take up HDL lipid via the mutant SR-BI in 2 to 3 hours. After significant uptake of the HDL lipid, the radiolabel can be detected by liquid scintillation counting. The level of radioactivity correlates with the amount of HDL lipid uptake. The uptake of lipid from HDL particles can be inhibited by the compound BLT-1 or when co-treated with an excess of unlabeled HDL. The mSR-BI cells utilized in the assay are a CHO cell line lacking expression of the LDL receptors and overexpressing the mutant scavenger receptor, C384S SR-BI.
SMILES,cytotoxicity (in words) [1],IC50 ([2]; read-out: DiI-HDL uptake IC50 after 4-hour washout period) [nM],uptake of HDL in C384S mutant background (in words) [3],activity after extended washout (in words) [2]
"CCCCCCC1CCCC1=NNC(N)=S (stereo not drawn) [BLT-1, reference compound]",extremely toxic to cells,0.6,cannot reduce uptake of HDL or efflux of cholesterol,–
"C[C@H](C(=O)NC1CCCC1)N(C(=O)Cn1nnc(-c2ccc3c(c2)OCO3)n1)C1CCCCC1 [ML279, (R)-2-(2-(5-(Benzo[d][1,3]dioxol-5-yl)-2H-tetrazol-2-yl)-N-cyclohexylacetamido)-N-cyclopentylpropanamide]",not cytotoxic; also recorded: no cytotoxicity at 24 hours,–,can reduce uptake and efflux in the mutant background,greatly attenuated

# — US9884851B2, “Heterocycle-bisamide inhibitors of scavenger receptor BI” (THE BROAD INSTITUTE, INC., priority 2012, dated 2018)
